Tested on: mice, streptozocin (STZ) model of type 1 diabetes
Test: STZ model of diabetic neuropathy, von Frey
Assay type: in vivo, mouse
Description: Induction of Diabetic neuropathy (STZ model).
Diabetes was induced by a single i.p. injection of […] streptozocin (STZ) solution (100 μL/10 g, Sigma-Aldrich S0130, batch #WXBB7152V) in male seven-week-old C57BL/6J (Charles River) mice. Glycemia was tested before, and seven days after injection. All injected mice had blood glucose concentration >350 mg/dL from day seven and were used for analgesic testing of the compounds from day 14. One mouse had to be euthanized at seven days post injection. This experiment was performed by Phenotype Expertise, Marseilles, France - Pain and CNS behaviour CRO under supervision of Stéphane Gaillard, PhD (CEO). […]
The skin wound was closed with two medical clips (Michel Suture Clips, 7.5x1.75 mm, Angthos, 12040-01). Post-surgical analgesia included s.c. injection of 5 mg/kg carprofen (Carprosan vet, 50 mg/mL mixed 1:25 in sterile ddH2O, Dechra, Le Vet Beheer B.V., Netherlands, Batch: 050520) right after surgery and the […]
following day. […]
The test battery of the CIBP model was carried out 45 or 90 min after morphine and mPD5 administration respectively to accommodate the peak efficacy […]
Mechanically evoked pain (von Frey test).
Unless otherwise specified, von Frey occurred as described in the following. Animals were habituated to the experimental room for a minimum of 60 min before initiation of the experiment. Mechanical paw withdrawal threshold (PWT) was determined by von Frey measurements of both hind paws. Von Frey filaments ranging from 0.04 to 2 g (g = gram- […]
Filaments in ascending order were applied to the frontocentral plantar surface of the hind paws.
Mice were placed in PVC plastic boxes (11.5 cm x 14 cm) on a wire mesh and allowed minimum 20 min habituation prior of experiment initiation. Each von Frey hair was applied five times with adequate resting periods between each application and number of withdrawals recorded. The withdrawal threshold was determined as the von Frey filament eliciting at least three positive trials out of the five applications in two consecutive filaments. A positive trial was defined as sudden paw withdrawal, flinching and/or paw licking induced by the filament.
For the CIBP model, two habituation sessions were performed on separated days with mice placed in the von Frey equipment for 1-1.5 hours in the presence of the experimenter on day one and random von Frey pocking with the 0.6 g filament on day two. Von Frey monofilaments (North Coast Touch Test, North Coast Medical, Inc.) with target forces of 0.04g, 0.07g, 0.16g, […]
down method” (PWT=10Xf+kδ) starting with the 0.6 g filament. Positive response was defined as; withdrawal, shaking or grooming of paw following a 2-3 second stimulation. In case, of unclear response, stimulus was repeated after 10-15 seconds.
For the STZ model, the mechanical threshold response of the injected mice was measured with […]
injection of test compounds on day 14, mechanical threshold was measured at 1 hour, 2 hours, 4 hours and 6 hours and again on day 15. […]
Thermally evoked pain (Hargreaves test).
A baseline Hargreaves test was performed on day 0 before inflammatory pain was induced as described in section 2.13. In the Hargreaves test, the mouse was placed in a container on a glass table and left to habituate for at least 15 min. Using the Hargreaves apparatus, a heat beam from beneath was directed towards the hind paws of the mouse, and the paw withdrawal time

Structure (SMILES): CCCCCCCCCCCCCC(=O)N(CCOCCOCCC(=O)N[C@@H](Cc1c[nH]cn1)C(=O)N[C@@H](Cc1c[nH]c2ccccc12)C(=O)N[C@@H](CC(C)C)C(=O)N[C@@H](CCCCN)C(=O)N[C@H](C(=O)O)C(C)C)CCOCCOCCC(=O)N[C@@H](Cc1c[nH]cn1)C(=O)N[C@@H](Cc1c[nH]c2ccccc12)C(=O)N[C@@H](CC(C)C)C(=O)N[C@@H](CCCCN)C(=O)N[C@H](C(=O)O)C(C)C [mPD5, myristoyl-NPEG4-(HWLKV)2]
- paw withdrawal threshold, left paw, group mean (2 umol/kg, +1h, n = 10): 0.44
- paw withdrawal threshold, left paw, group mean (2 umol/kg, +2h, n = 10): 0.37
- paw withdrawal threshold, left paw, group mean (2 umol/kg, +4h, n = 10): 0.37
- paw withdrawal threshold, left paw, group mean (2 umol/kg, +6h, n = 10): 0.25
- paw withdrawal threshold, left paw, group mean (2 umol/kg, D15, n = 10): 0.17
- paw withdrawal threshold, left paw, group mean (10 umol/kg, +1h, n = 10): 0.58
- paw withdrawal threshold, left paw, group mean (10 umol/kg, +2h, n = 10): 0.6
- paw withdrawal threshold, left paw, group mean (10 umol/kg, +4h, n = 10): 0.38
- paw withdrawal threshold, left paw, group mean (10 umol/kg, +6h, n = 10): 0.21
- paw withdrawal threshold, left paw, group mean (10 umol/kg, D15, n = 10): 0.28
- extension of the effect at the highest dose (male mice, s.c. 10 μmol/kg): extended for another hour
- effect on mechanical hypersensitivity (PWT) (male mice, s.c. 2 and 10 μmol/kg, the first hour after injection): significant relief of mechanical hypersensitivity

From paper PMC11530130, “Peripherally restricted PICK1 inhibitor mPD5 ameliorates pain behaviors in murine inflammatory and neuropathic pain models” (JCI Insight, 2024)
